# From patent US20240287080A1 (IDEAYA Biosciences Inc., priority 2021, published 2024)
# pIC50: −log10 of the molar value.
# Target: T1, Pol theta (1-899) (Homo sapiens, UniProt O75417)
# T1 construct: Pol theta (1-899) (5 nM) in assay buffer
# Test: Pol theta ATPase activity, NADH oxidation-coupled enzymatic assay (ATPase NADH coupling: Standard Screening: hPolQ)
# Format: biochemical
# Details: Pol theta (1-899) 5 nM, NADH oxidation-coupled ATPase assay; compounds of Table 3
# Description: The ability of the compounds of Formula (I) or Table 1 to inhibit ATPase activity of Pol theta (1-899) was determined using the assay described below. Pol Theta ATPase activity was determined by measuring the rate of ATP turn over in a NADH oxidation-coupled enzymatic assay. 10-point dilution series of compounds were used in a 384 well format for the inhibition assays. Pol theta (1-899) (5 nM) in assay buffer (20 mM Tris HCl (pH 7.80), 80 mM KCl, 10 mM MgCl2, 1 mM DTT, 0.01% BSA, 0.01% Tween, 5% glycerol) was transferred to the test wells (20 μL), except the low control wells (20 μL of assay buffer was added to the low control wells). The plate was then incubated at room temperature for 15 min. An equal volume (20 μL) of 100 μM ATP, 300 nM […] (single-stranded DNA (ssDNA) containing 50 thymine bases), 300 μM NADH, 6 mM PEP, 10 U/mL lactate dehydrogenase and 20 U/mL pyruvate kinase in assay buffer was added to all the test wells. The plate was then centrifuged at 1000 rpm for 1 min. The reaction was monitored for 60 min by measuring absorbance (λ=340 nm) in a Tecan Spark multimode plate reader every minute. The high control (DMSO with enzyme) with low absorbance intensity represents no inhibition of ATPase reaction while the low control (DMSO with buffer) with high absorbance intensity represents full inhibition of ATPase activity. Slope of the reaction progress curves were used to calculate the rate of ATP hydrolysis. The rates were used to determine the percent inhibition using a four-parameter inhibition model to generate IC50, Hill slope and max inhibition.
# T1 sequence (O75417 1-899): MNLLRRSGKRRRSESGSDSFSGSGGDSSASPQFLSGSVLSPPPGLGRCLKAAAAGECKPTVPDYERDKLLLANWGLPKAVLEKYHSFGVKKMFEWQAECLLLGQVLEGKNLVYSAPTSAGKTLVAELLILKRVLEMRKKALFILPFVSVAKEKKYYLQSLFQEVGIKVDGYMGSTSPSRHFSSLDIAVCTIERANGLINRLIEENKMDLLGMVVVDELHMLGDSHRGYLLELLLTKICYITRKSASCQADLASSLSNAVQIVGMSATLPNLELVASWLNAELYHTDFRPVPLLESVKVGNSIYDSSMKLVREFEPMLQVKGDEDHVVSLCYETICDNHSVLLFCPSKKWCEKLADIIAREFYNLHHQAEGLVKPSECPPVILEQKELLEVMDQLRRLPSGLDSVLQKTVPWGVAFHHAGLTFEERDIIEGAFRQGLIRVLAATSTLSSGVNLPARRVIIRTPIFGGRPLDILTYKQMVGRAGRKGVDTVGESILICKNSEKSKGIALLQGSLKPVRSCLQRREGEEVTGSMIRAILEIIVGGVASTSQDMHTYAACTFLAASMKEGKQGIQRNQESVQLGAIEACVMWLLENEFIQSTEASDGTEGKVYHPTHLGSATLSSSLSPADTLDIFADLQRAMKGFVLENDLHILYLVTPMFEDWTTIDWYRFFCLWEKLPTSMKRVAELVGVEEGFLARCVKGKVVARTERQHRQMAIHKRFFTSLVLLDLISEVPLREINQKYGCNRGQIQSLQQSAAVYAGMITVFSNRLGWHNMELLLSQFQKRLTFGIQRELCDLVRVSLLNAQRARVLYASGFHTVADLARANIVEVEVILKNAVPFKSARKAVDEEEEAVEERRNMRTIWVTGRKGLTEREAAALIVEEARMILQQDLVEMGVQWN
row,pIC50,Compound
1,≥ 6.70,"COc1nnc(NC(=O)c2cnc(C)cc2-c2cc(Cl)c(S(C)(=O)=O)cc2OC)s1 [Example 272, 4-(5-chloro-2-methoxy-4-(methylsulfonyl)phenyl)-N-(5-methoxy-1,3,4-thiadiazol-2-yl)-6-methylnicotinamide]"
2,5.00 to 6.00,"COc1nnc(NC(=O)c2cnc(C)cc2-c2cncc(F)c2)s1 [Example 471, 5-fluoro-N-(5-methoxy-1,3,4-thiadiazol-2-yl)-6′-methyl-[3,4′-bipyridine]-3′-carboxamide]"
3,≥ 6.70,"COc1nnc(NC(=O)c2cnc(C)cc2-c2ccc(F)c(C(F)(F)F)c2)s1 [Example 450, 4-[4-fluoro-3-(trifluoromethyl)phenyl]-N-(5-methoxy-1,3,4-thiadiazol-2-yl)-6-methylpyridine-3-carboxamide]"
4,5.00 to 6.00,"COc1nnc(NC(=O)c2cnc(C)cc2-c2cc(C(F)(F)F)cc(C(F)(F)F)c2)s1 [Example 333, 4-[3,5-bis(trifluoromethyl)phenyl]-N-(5-methoxy-1,3,4-thiadiazol-2-yl)-6-methylpyridine-3-carboxamide]"
5,5.00 to 6.00,"COc1nnc(NC(=O)c2cnc(C)cc2-c2ccc(C(=O)O)c(F)c2)s1 [Example 465, 2-fluoro-4-(5-((5-methoxy-1,3,4-thiadiazol-2-yl)carbamoyl)-2-methylpyridin-4-yl)benzoic acid]"
6,5.00 to 6.00,"COc1nnc(NC(=O)c2cnc(C)cc2-c2cccc(C(=O)NC3CC3)c2)s1 [Example 344, 4-[3(cyclopropylcarbamoyl)phenyl]-N-(5-methoxy-1,3,4-thiadiazol-2-yl)-6-methylpyridine-3carboxamide]"
7,≥ 6.70,"Cc1cc(-c2cc(Cl)ncc2OC(F)F)c(C(=O)Nc2nnc(O[C@@H]3CCC[C@H](O)C3)s2)cn1 (single isomer, unassigned) [Example 252]"
8,5.00 to 6.00,"COc1nnc(NC(=O)c2cnc(C)cc2-c2ccc(C)c(C)c2)s1 [Example 381, 4-(3,4-dimethylphenyl)-N-(5-methoxy-1,3,4-thiadiazol-2-yl)-6-methylpyridine-3-carboxamide]"
9,≥ 6.70,"COc1cnc(Br)cc1-c1cc(C)ncc1C(=O)Nc1nnc(O[C@@H]2CCC[C@H](O)C2)s1 (single isomer, unassigned) [Example 239]"
10,6.00 to 6.30,"CCc1cccc(-c2cc(C)ncc2C(=O)Nc2nnc(OC)s2)c1 [Example 383, 4-(3-ethylphenyl)-N-(5-methoxy-1,3,4-thiadiazol-2-yl)-6-methylpyridine-3-carboxamide]"
11,≥ 6.70,"COc1nnc(NC(=O)c2cnc(C)cc2-c2cc(Cl)c([S@@+]([O-])C3CC3)cc2OC)s1 (single isomer, unassigned) [Example 318]"
12,5.00 to 6.00,"COc1nnc(NC(=O)c2cnc(C)cc2-c2ccc3cn[nH]c3c2)s1 [Example 338, 4-(1H-indazol-6-yl)-N-(5-methoxy-1,3,4-thiadiazol-2-yl)-6-methylnicotinamide]"

row,Compound,pIC50
1,"COc1cnc(Cl)cc1-c1cc(C)ncc1C(=O)Nc1nnc(O[C@H]2CN3CCC2CC3)s1 [Example 306, (R)-2′-chloro-5′-methoxy-6-methyl-N-(5-(quinuclidin-3-yloxy)-1,3,4-thiadiazol-2-yl)-[4,4′-bipyridine]-3-carboxamide]",5.00 to 6.00

# Same assay, conditions: Table 4; Pol theta (1-899) 5 nM, ATP, dT50 ssDNA
row,pIC50,Compound
1,≥ 6.70,"COc1cnc(Cl)cc1-c1cc(C)ncc1C(=O)Nc1nnc(OCC2CCOC2C)s1 (stereo not shown) [Example 74, 2′-chloro-5′-methoxy-6-methyl-N-(5-((2-methyltetrahydrofuran-3-yl)methoxy)-1,3,4-thiadiazol-2-yl)-(4,4′-bipyridine)-3-carboxamide]"
2,≥ 6.70,"COc1nnc(NC(=O)c2cnc(C)cc2-c2cc(Cl)ccc2OC)s1 [Example 9, 4-(5-chloro-2-methoxyphenyl)-N-(5-methoxy-1,3,4-thiadiazol-2-yl)-6-methylnicotinamide]"
3,≥ 6.70,"COc1cnc(Cl)cc1-c1cc(C)ncc1C(=O)Nc1nnc(OCC(C)(C)F)s1 [Example 19, 2′-chloro-N-(5-(2-fluoro-2-methylpropoxy)-1,3,4-thiadiazol-2-yl)-5′-methoxy-6-methyl-(4,4′-bipyridine)-3-carboxamide]"
4,≥ 6.70,"COc1cnc(Cl)cc1-c1cc(C)ncc1C(=O)Nc1nnc(O[C@H]2CCOC2)s1 [Example 22, (S)-2′-chloro-5′-methoxy-6-methyl-N-(5-((tetrahydrofuran-3-yl)oxy)-1,3,4-thiadiazol-2-yl)-(4,4′-bipyridine)-3-carboxamide]"
5,≥ 6.70,"COc1cnc(Cl)cc1-c1cc(C)ncc1C(=O)Nc1nnc(OC(C)C)s1 [Example 6, 2′-chloro-N-(5-isopropoxy-1,3,4-thiadiazol-2-yl)-5′-methoxy-6-methyl-(4,4′-bipyridine)-3-carboxamide]"
6,6.30 to 6.70,"COc1nnc(NC(=O)c2cnc(C)cc2-c2c(Cl)cccc2OC)s1 [Example 35, 4-(2-chloro-6-methoxyphenyl)-N-(5-methoxy-1,3,4-thiadiazol-2-yl)-6-methylnicotinamide]"
7,≥ 6.70,"COc1nnc(NC(=O)c2cnc(C)cc2-c2cc(C(F)(F)F)ncc2OC)s1 [Example 57, 5′-methoxy-N-(5-methoxy-1,3,4-thiadiazol-2-yl)-6-methyl-2′-(trifluoromethyl)-(4,4′-bipyridine)-3-carboxamide]"
8,≥ 6.70,"COc1cnc(Cl)cc1-c1cc(C)ncc1C(=O)Nc1nnc(OCC(F)F)s1 [Example 18, 2′-chloro-N-(5-(2,2-difluoroethoxy)-1,3,4-thiadiazol-2-yl)-5′-methoxy-6-methyl-(4,4′-bipyridine)-3-carboxamide]"

row,Compound,pIC50
1,"COc1cnc(Cl)cc1-c1cc(C)ncc1C(=O)Nc1nnc(O[C@H]2C[C@H](O)C2)s1 [Example 16, 2′-chloro-N-(5-((1r,3r)-3-hydroxycyclobutoxy)-1,3,4-thiadiazol-2-yl)-5′-methoxy-6-methyl-(4,4′-bipyridine)-3-carboxamide]",≥ 6.70

# Same assay, conditions: Table 5; Pol theta (1-899) 5 nM, ATP, dT50 ssDNA
row,pIC50,Compound
1,≥ 6.70,"COc1cnc(Br)cc1-c1cc(C)ncc1C(=O)Nc1nnc(O[C@H]2CCOC2)s1 [Example 122, (S)-2′-bromo-5′-methoxy-6-methyl-N-(5-((tetrahydrofuran-3-yl)oxy)-1,3,4-thiadiazol-2-yl)-(4,4′-bipyridine)-3-carboxamide]"
2,≥ 6.70,"COc1cnc(Cl)cc1-c1cc(C)ncc1C(=O)Nc1nnc(O[C@@H]2COCC2(F)F)s1 (single isomer, unassigned) [Example 127]"
3,≥ 6.70,"COc1cnc(Cl)c(F)c1-c1cc(C)ncc1C(=O)Nc1nnc(O[C@@H]2CC[C@@H](O)C2)s1 (single isomer, unassigned) [Example 198]"
4,6.00 to 6.30,"COc1cnc(Cl)cc1-c1cc(OC2CC2)ncc1C(=O)Nc1nnc(O[C@@H]2CCOC2)s1 [Example 193, (R)-2′-chloro-6-cyclopropoxy-5′-methoxy-N-(5-((tetrahydrofuran-3-yl)oxy)-1,3,4-thiadiazol-2-yl)-(4,4′-bipyridine)-3-carboxamide]"
5,≥ 6.70,"COc1cnc(Cl)cc1-c1cc(C)ncc1C(=O)Nc1nnc(O[C@@H]2COC3(CCCC3)C2)s1 (single isomer, unassigned) [Example 229]"
6,≥ 6.70,"COc1cnc(C)c(F)c1-c1cc(C)ncc1C(=O)Nc1nnc(O[C@@H]2COC3(CC3)C2)s1 (single isomer, unassigned) [Example 207]"
7,≥ 6.70,"COc1cnc(Cl)cc1-c1cc(C)ncc1C(=O)Nc1nnc(O[C@H]2CCC23COC3)s1 (single isomer, unassigned) [Example 136]"
8,≥ 6.70,"COc1cnc(Cl)c(F)c1-c1cc(C)ncc1C(=O)Nc1nnc(O[C@@H]2COC3(CC3)C2)s1 (single isomer, unassigned) [Example 209]"
9,≥ 6.70,"COc1cnc(Cl)cc1-c1cc(C)ncc1C(=O)Nc1nnc(O[C@H]2CC[C@@H](C(C)(C)O)CC2)s1 [Example 175, 2′-chloro-N-(5-(((1s,4s)-4-(2-hydroxypropan-2-yl)cyclohexyl)oxy)-1,3,4-thiadiazol-2-yl)-5′-methoxy-6-methyl-(4,4′-bipyridine)-3-carboxamide]"
10,≥ 6.70,"COc1cnc(Br)cc1-c1cc(C)ncc1C(=O)Nc1nnc(O[C@H]2CC[C@](C)(O)CC2)s1 (single isomer, unassigned) [Example 225, 2′-bromo-N-(5-(((1r,4r)-4-hydroxy-4-methylcyclohexyl)oxy)-1,3,4-thiadiazol-2-yl)-5′-methoxy-6-methyl-(4,4′-bipyridine)-3-carboxamide]"
11,≥ 6.70,"COc1cnc(Cl)cc1-c1cc(C)ncc1C(=O)Nc1nnc(O[C@H]2CC[C@@H](OC)CC2)s1 (single isomer, unassigned) [Example 124, 2′-chloro-5′-methoxy-N-(5-(((1s,4s)-4-methoxycyclohexyl)oxy)-1,3,4-thiadiazol-2-yl)-6-methyl-(4,4′-bipyridine)-3-carboxamide]"

row,Compound,pIC50
1,"COc1cnc(Cl)c(F)c1-c1cc(C)ncc1C(=O)Nc1nnc(O[C@H]2C[C@H](OC)C2)s1 (single isomer, unassigned) [Example 151, 2′-chloro-3′-fluoro-5′-methoxy-N-(5-((1r,3r)-3-methoxycyclobutoxy)-1,3,4-thiadiazol-2-yl)-6-methyl-(4,4′-bipyridine)-3-carboxamide]",≥ 6.70
